Reference: paper PMC3459575 (Clinical Interventions in Aging, 2012)

Experiments:
[1] = target: T1, 5α-reductase type 2 (Homo sapiens, UniProt P31213); assay type: cell-based
T1 sequence (P31213 1-254): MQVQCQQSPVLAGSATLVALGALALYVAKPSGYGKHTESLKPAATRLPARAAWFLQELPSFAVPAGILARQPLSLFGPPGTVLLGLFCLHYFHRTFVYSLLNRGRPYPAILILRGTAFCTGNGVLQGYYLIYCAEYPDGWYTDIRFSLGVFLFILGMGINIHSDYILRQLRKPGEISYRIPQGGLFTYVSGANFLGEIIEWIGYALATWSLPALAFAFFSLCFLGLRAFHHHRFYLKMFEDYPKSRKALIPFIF

[2] = target: T2, 5α-reductase type 1 (Homo sapiens, UniProt P18405); assay type: cell-based
T2 sequence (P18405 1-259): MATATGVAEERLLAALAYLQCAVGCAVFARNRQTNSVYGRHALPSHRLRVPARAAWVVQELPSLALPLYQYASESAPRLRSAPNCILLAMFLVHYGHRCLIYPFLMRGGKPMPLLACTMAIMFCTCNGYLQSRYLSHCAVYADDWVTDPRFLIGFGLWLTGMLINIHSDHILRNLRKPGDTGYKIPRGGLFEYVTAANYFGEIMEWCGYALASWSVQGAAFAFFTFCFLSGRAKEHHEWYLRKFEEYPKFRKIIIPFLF

- IC50 [1]: ~100 nM
- IC50 [2]: ~800 nM
SMILES: CC(C)(C)NC(=O)[C@H]1CC[C@H]2[C@@H]3CC[C@H]4NC(=O)C=C[C@]4(C)[C@H]3CC[C@]12C [finasteride]
